Measured values published in ChEMBL document CHEMBL4414565, “Furanocoumarins from the Roots of Angelica dahurica with Inhibitory Activity against Intracellular Reactive Oxygen Species Accumulation” (J Nat Prod, 2019).

Experiments:
[1] = tested on: HepG2; assay: Cytotoxicity against human HepG2 cells assessed as cell viability at 10 uM incubated for 1 hr by EZ-Cytox cell viability assay; format: cell-based; details: hepg2, 1 h
[2] = tested on: HepG2; assay: Inhibition of H2O2-induced ROS accumulation in human HepG2 cells assessed as ROS generation at 10 uM preincubated for 1 hr followed by H2O2-stimulation and measured after 30 mins by H2DCFDA staining based flow cytometry (reference value: 100 +/- 11.53%); format: functional; set-up: scale not given: the % may be the effect or the level left
[3] = tested on: HepG2; assay: Hepatoprotective activity against H2O2-induced cell death in human HepG2 cells assessed as cell viability at 10 uM preincubated for 1 hr followed by H2O2-stimulation and measured after 24 hrs by EZ-Cytox cell viability assay (reference value: 43.9 +/- 5.25%); format: functional; details: read-out: Activity
[4] = tested on: HepG2; assay: Hepatoprotective activity against H2O2-induced cell death in human HepG2 cells assessed as cell viability at 50 uM preincubated for 1 hr followed by H2O2-stimulation and measured after 24 hrs by EZ-Cytox cell viability assay (reference value: 43.9 +/- 5.25%); format: functional; details: read-out: Activity
[5] = tested on: HepG2; assay: Inhibition of H2O2-induced ROS accumulation in human HepG2 cells at 50 uM assessed as ROS generation preincubated for 1 hr followed by H2O2-stimulation and measured after 30 mins by H2DCFDA staining based flow cytometry (reference value: 100 +/- 11.53%); format: functional; set-up: scale not given: the % may be the effect or the level left

| Compound | Activity [1] | Activity [2] [%] | viability at 10 µM [3] [%] | viability at 50 µM [4] [%] | Activity [5] [%] |
| --- | --- | --- | --- | --- | --- |
| COc1c2ccoc2c(OC[C@@H](O)C(C)(C)O)c2oc(=O)ccc12 [BYAKANGELICIN] | Non-Toxic | 57.9 | 46.5 | – | – |
| COc1c2c(c(OCC=C(C)C)c3occc13)O[C@]1(C=C2)O[C@H](COc2c3ccoc3cc3oc(=O)ccc23)C(C)(C)O1 | Non-Toxic | 79.9 | 64.1 | – | – |
| O=C(/C=C/c1ccc(O)c(O)c1)O[C@H](Cc1ccc(O)c(O)c1)C(=O)O [ROSMARINIC ACID] | – | – | – | 65.3 | 49.3 |
| COc1c2ccoc2c(OC/C=C(/C)COC(=O)CC(C)C)c2oc(=O)ccc12 | Non-Toxic | 90.1 | 58.5 | – | – |
| COc1c2ccoc2c(O)c2oc(=O)ccc12 | Non-Toxic | 38.1 | 34.6 | – | – |
| CC(C)(O)[C@H](O)COc1c2ccoc2cc2oc(=O)ccc12 [OXYPEUCEDANIN HYDRATE] | Non-Toxic | 92.8 | 47.5 | – | – |
| CC(C)=CCOc1c2ccoc2c(OCC(O)C(C)(C)O)c2oc(=O)ccc12 (single isomer, unassigned; (-)) | Non-Toxic | 85.3 | 61.1 | – | – |
| CC1(C)O[C@@H]1COc1c2ccoc2cc2oc(=O)ccc12 | Non-Toxic | 103.9 | 59.3 | – | – |
| COc1c2ccoc2cc2oc(=O)ccc12 [BERGAPTEN] | Non-Toxic | 92.7 | 60.3 | – | – |
| CC(C)=CCOc1c2ccoc2cc2oc(=O)ccc12 [ISOIMPERATORIN] | Non-Toxic | 71.1 | 67 | – | – |
| COc1c2ccoc2c(OCC=C(C)C)c2oc(=O)ccc12 [PHELLOPTERIN] | Non-Toxic | 58.3 | 57.6 | – | – |
| COc1c2ccoc2c(OC[C@@H](O)C(C)(C)OC)c2oc(=O)ccc12 | Non-Toxic | 52 | 40.4 | – | – |
| CC(C)=CCOc1c2occc2c(OC[C@H]2OC2(C)C)c2ccc(=O)oc12 | Non-Toxic | 65.5 | 56.2 | – | – |
| CC(C)=CCOc1c2occc2c(OC[C@@H](O)C(C)(C)O)c2ccc(=O)oc12 | Non-Toxic | 78 | 51 | – | – |
| C/C=C/c1cc(OC)c(OC)c(OC)c1 | Non-Toxic | 75.8 | 62.2 | – | – |
| COc1c2occc2cc2ccc(=O)oc12 [METHOXSALEN] | Non-Toxic | 77 | 56.5 | – | – |
| COc1c2c(c(OCC=C(C)C)c3occc13)O[C@@]1(C=C2)O[C@H](COc2c3ccoc3cc3oc(=O)ccc23)C(C)(C)O1 | Non-Toxic | 100 | 63 | – | – |
| C=C(C)[C@H](O)COc1c2ccoc2c(OCC=C(C)C)c2oc(=O)ccc12 | Non-Toxic | 63.9 | 50.9 | – | – |
| CC(C)=CCOc1c2occc2cc2ccc(=O)oc12 [PENTOSALEN] | Non-Toxic | 77.1 | 71.5 | – | – |
| COc1c2occc2c(OCC=C(C)C)c2ccc(=O)oc12 [KINIDILIN] | Non-Toxic | 51.3 | 60.5 | – | – |
| O=c1ccc2cc3ccoc3cc2o1 [PSORALEN] | Non-Toxic | 101.4 | 55.5 | – | – |
